Experimental data reported in article PMC7180572, “5-Alkylamino-N-phenylpyrazine-2-carboxamides: Design, Preparation, and Antimycobacterial Evaluation” (Molecules, 2020).
Values after ≈ are worked out from the molar mass of the structure shown. Read-outs that look alike come from different tables or passages of the source.

Legend:
[1] = system: Aspergillus flavus CCM 8363; experiment: Antifungal microdilution broth method (EUCAST); type: cell-based
[2] = system: Candida parapsilosis ATCC 22019, CCM 8260; experiment: Antifungal microdilution broth method (EUCAST); type: cell-based; conditions: Lodderomyces parapsilosis
[3] = system: Staphylococcus aureus methicillin resistant ATCC 43300, CCM 4750; experiment: microbe, parasite or virus in culture; type: cell-based; conditions: ATCC 43300 / CCM 4750 / MRSA, read-out: MIC MRSA
[4] = system: Staphylococcus aureus spp.aureus ATCC 29213, CCM 4223; experiment: Antibacterial microdilution broth method (EUCAST); type: cell-based; conditions: read-out: MIC SA
[5] = system: Candida tropicalis ATCC 750, CCM 8264; experiment: Antifungal microdilution broth method (EUCAST); type: cell-based
[6] = system: Klebsiella pneumoniae ATCC 10031, CCM 4415; experiment: Antibacterial microdilution broth method (EUCAST)
[7] = system: Staphylococcus epidermidis ATCC 12228, CCM 4418; experiment: Antibacterial microdilution broth method (EUCAST); type: cell-based; conditions: read-out: MIC SE
[8] = system: Mycobacterium tuberculosis H37Ra ITM-M006710 (ATCC 9431); experiment: Microdilution broth, modified Microplate Alamar Blue Assay, whole cell growth inhibition; type: cell-based; conditions: Mycobacterium tuberculosis, read-out: MIC Mtb H37Ra
[9] = system: Acinetobacter baumanii ATCC 19606, DSM 30007; experiment: Antibacterial microdilution broth method (EUCAST); type: cell-based; conditions: Acinetobacter baumannii
[10] = system: Enterococcus faecalis ATCC 29212, CCM 4224; experiment: Antibacterial microdilution broth method (EUCAST); type: cell-based; conditions: read-out: MIC EF
[11] = system: Aspergillus fumigatus ATCC 204305; experiment: Antifungal microdilution broth method (EUCAST); type: cell-based
[12] = system: Candida krusei ATCC 6258, CCM 8271; experiment: Antifungal microdilution broth method (EUCAST); type: cell-based; conditions: Pichia kudriavzevii
[13] = system: Mycobacterium aurum DSM 43999 (ATCC 23366); experiment: Microdilution broth, modified Microplate Alamar Blue Assay, whole cell growth inhibition; type: cell-based; conditions: Mycolicibacterium aurum, read-out: MIC Mycobacterium aurum
HepG2 cells = experiment: HepG2 cytotoxicity, CellTiter 96 (MTS) assay; type: cell-based, human; conditions: for IC50: Homo sapiens, read-out: HepG2 IC50; for SI, selectivity index: IC50 (HepG2)/MIC against Mtb H37Ra (in µM)
[14] = system: Absidia corymbifera CCM 8077 (Lichtheimia corymbifera); experiment: Antifungal microdilution broth method (EUCAST); type: cell-based
[15] = system: Escherichia coli ATCC 25922, CCM 3954; experiment: Antibacterial microdilution broth method (EUCAST); type: cell-based; conditions: read-out: MIC EC
[16] = system: Pseudomonas aeruginosa ATCC 27853, CCM 3955; experiment: Antibacterial microdilution broth method (EUCAST); type: cell-based; conditions: read-out: MIC PA
[17] = system: Mycobacterium smegmatis DSM 43465 (ATCC 607); experiment: Microdilution broth, modified Microplate Alamar Blue Assay, whole cell growth inhibition; type: cell-based; conditions: Mycolicibacterium smegmatis, read-out: MIC Mycobacterium smegmatis
[18] = system: Candida albicans ATCC 24433, CCM 8320; experiment: Antifungal microdilution broth method (EUCAST); type: cell-based
[19] = system: Trichophyton interdigitale ATCC 9533, CCM 8377; experiment: Antifungal microdilution broth method (EUCAST); type: cell-based
[20] = CCM8363, 24 h, read-out: MIC AFla
[21] = CCM8363, 48 h, read-out: MIC AFla
[22] = in vitro, Middlebrook 7H9 broth, resazurin
[23] = ATCC204305, 24 h, read-out: MIC AF
[24] = ATCC204305, 48 h, read-out: MIC AF
[25] = CCM8077, 24 h, read-out: MIC AC
[26] = CCM8077, 48 h, read-out: MIC AC
[27] = HepG2, 24 h incubation, > means higher concentration not reproducible due to precipitation

In the case of CCCCCCNc1cnc(C(=O)Nc2ccc(O)cc2)cn1 [Compound 3d, 5-(Hexylamino)pyrazine-N-(4-hydroxyphenyl)-2-carboxamide], the MIC [1, 20] is reported as > 500 µM, the MIC [1, 21] is reported as > 500 µM and the MIC ([2]; 24 h, read-out: MIC CP) is reported as > 500 µM. The MIC ([2]; 48 h, read-out: MIC CP) was > 500 µM, the MIC ([3]; 24 h) was > 500 µM and the MIC ([3]; 48 h) was > 500 µM. For the same compound, the MIC ([4]; 24 h) was > 500 µM, the MIC ([4]; 48 h) was > 500 µM and the MIC ([5]; 24 h, read-out: MIC CT) was > 500 µM. For the same compound, the MIC ([5]; 48 h, read-out: MIC CT) was > 500 µM, the “MIC KP” value ([6]; 24h) was > 500 µM and the “MIC KP” value ([6]; 48h) was > 500 µM. For the same compound, the MIC ([7]; 24 h) was > 500 µM, the MIC ([7]; 48 h) was > 500 µM and the MIC [8, 22] was 3.91 µg/mL (≈ 12.4 µM). The MIC ([9]; 24h) was > 500 µM, the MIC ([9]; 48h) was > 500 µM and the MIC ([10]; 24 h) was > 500 µM. The MIC ([10]; 48 h) was > 500 µM, the MIC [11, 23] was > 500 µM and the MIC [11, 24] was > 500 µM. The MIC ([12]; 24 h, read-out: MIC CK) was > 500 µM, the MIC ([12]; 48 h, read-out: MIC CK) was > 500 µM and the melting point was 157.7 to 161.5 °C. For the same compound, the MIC [13] was ≥ 500 µg/mL, the IC50 (HepG2 cells; HepG2, 24 h) was 58.6 µM and the “SI, selectivity index” value (HepG2 cells) was 4.71. For the same compound, the MIC [14, 25] was > 500 µM, the MIC [14, 26] was > 500 µM and the MIC ([15]; 24 h) was > 500 µM. For the same compound, the MIC ([15]; 48 h) was > 500 µM, the MIC ([16]; 72 h) was > 500 µM and the MIC ([16]; 120 h) was > 500 µM. The MIC [17] was 250 µg/mL (≈ 795 µM), the MIC ([18]; 24 h, read-out: MIC CA) was > 500 µM and the MIC ([18]; 48 h, read-out: MIC CA) was > 500 µM. For the same compound, the MIC ([19]; 72 h, read-out: MIC TI) was > 500 µM and the MIC ([19]; 120 h, read-out: MIC TI) was > 500 µM.
In the case of C[C@@H]1[C@H](O)[C@@H](C)/C=C/C=C/C=C/C=C/C=C/C=C/C=C/[C@H](O[C@@H]2O[C@H](C)[C@@H](O)[C@H](N)[C@@H]2O)C[C@@H]2O[C@](O)(C[C@@H](O)C[C@@H](O)[C@H](O)CC[C@@H](O)C[C@@H](O)CC(=O)O[C@H]1C)C[C@H](O)[C@H]2C(=O)O [Amphotericin B, amphotericin B, reference compound], the MIC ([1]; CCM8363, 48 h, standards, read-out: MIC against Aspergillus flavus) is reported as 8 µg/mL, the MIC ([2]; 48 h, standards, read-out: MIC against C. parapsilosis) is reported as 0.5 µg/mL and the MIC ([2]; Table 3, standard, read-out: MIC CP (Candida parapsilosis)) is reported as 0.5 µg/mL. It also gave an MIC ([2]; Table 3, read-out: MIC CP (Candida parapsilosis)) of 0.54 µM, an MIC ([5]; 48 h, standards, read-out: MIC against C. tropicalis) of 1 µg/mL and an MIC ([11]; ATCC204305, 48 h, standards, read-out: MIC against Aspergillus fumigatus) of 1 µg/mL. It also gave an MIC ([12]; 48 h, standards, read-out: MIC against C. krusei) of 1 µg/mL, an MIC ([12]; Table 3, standard, read-out: MIC CK (Candida krusei)) of 1 µg/mL and an MIC ([12]; Table 3, read-out: MIC CK (Candida krusei)) of 1.08 µM. It also gave an MIC ([14]; CCM8077, 48 h, standards, read-out: MIC against Lichtheimia corymbifera) of 0.5 µg/mL, an MIC ([18]; 48 h, standards, read-out: MIC against Candida albicans) of 0.5 µg/mL and an MIC ([18]; Table 3, read-out: MIC CA (Candida albicans)) of 0.54 µM. It also gave an MIC ([18]; Table 3, standard, read-out: MIC CA (Candida albicans)) of 0.5 µg/mL and an MIC ([19]; 72 h, standards, read-out: MIC against Trichophyton interdigitale) of 2 µg/mL.
With CCCNc1cnc(C(=O)Nc2cccc(O)c2)cn1 [Compound 2a, N-(3-hydroxyphenyl)-5-(propylamino)pyrazine-2-carboxamide] the MIC [1, 20] was > 125 µM, the MIC [1, 21] was > 125 µM and the MIC ([2]; 24 h, read-out: MIC CP) was > 125 µM. For the same compound, the MIC ([2]; 48 h, read-out: MIC CP) was > 125 µM, the MIC ([2]; read-out: MIC CP (Candida parapsilosis)) was > 125 µM and the MIC ([3]; 24 h) was > 125 µM. The MIC ([3]; 48 h) was > 125 µM, the MIC ([4]; 24 h) was > 125 µM and the MIC ([4]; 48 h) was > 125 µM. The MIC ([5]; 24 h, read-out: MIC CT) was > 125 µM, the MIC ([5]; 48 h, read-out: MIC CT) was > 125 µM and the “MIC KP” value ([6]; 24h) was > 125 µM. The “MIC KP” value ([6]; 48h) was > 125 µM, the MIC ([7]; 24 h) was > 125 µM and the MIC ([7]; 48 h) was > 125 µM. The MIC [8, 22] was 7.81 µg/mL (≈ 28.7 µM), the MIC ([9]; 24h) was > 125 µM and the MIC ([9]; 48h) was > 125 µM. For the same compound, the MIC ([10]; 24 h) was > 125 µM, the MIC ([10]; 48 h) was > 125 µM and the MIC [11, 23] was > 125 µM. For the same compound, the MIC [11, 24] was > 125 µM, the MIC ([12]; 24 h, read-out: MIC CK) was 62.5 µM and the MIC ([12]; 48 h, read-out: MIC CK) was 62.5 µM. For the same compound, the MIC ([12]; read-out: MIC CK (Candida krusei)) was 62.5 µM, the melting point was 194 to 195 °C and the MIC [13] was ≥ 500 µg/mL. For the same compound, the IC50 (HepG2 cells; HepG2, 24 h) was > 100 µM, the “SI, selectivity index” value (HepG2 cells) was >3.5 and the MIC [14, 25] was > 125 µM. The MIC [14, 26] was > 125 µM, the MIC ([15]; 24 h) was > 125 µM and the MIC ([15]; 48 h) was > 125 µM. For the same compound, the MIC ([16]; 72 h) was > 125 µM, the MIC ([16]; 120 h) was > 125 µM and the MIC [17] was ≥ 500 µg/mL. The MIC ([18]; 24 h, read-out: MIC CA) was > 125 µM, the MIC ([18]; 48 h, read-out: MIC CA) was > 125 µM and the MIC ([18]; read-out: MIC CA (Candida albicans)) was > 125 µM. For the same compound, the MIC ([19]; 72 h, read-out: MIC TI) was > 125 µM and the MIC ([19]; 120 h, read-out: MIC TI) was > 125 µM.
With CCc1ccc(NC(=O)c2cnc(Cl)cn2)cc1 [Compound 5, 5-Chloro-N-(4-ethylphenyl)pyrazine-2-carboxamide] the MIC [8] was 250 µg/mL (≈ 955 µM), the MIC [13, 22] was ≥ 500 µg/mL and the IC50 (HepG2 cells; [27]) was > 50 µM. The MIC [17, 22] was ≥ 500 µg/mL.
In the case of Cc1ccc(NC(=O)c2cnc(Cl)cn2)cc1 [Compound 4, 5-Chloro-N-(p-tolyl)pyrazine-2-carboxamide], the MIC [8, 22] is reported as ≥ 500 µg/mL, the MIC [13, 22] is reported as ≥ 500 µg/mL and the IC50 (HepG2 cells; [27]) is reported as > 50 µM. The MIC [17, 22] was ≥ 500 µg/mL.
In the case of CO[C@H]1/C=C/O[C@@]2(C)Oc3c(C)c(O)c4c(O)c(c(/C=N/N5CCN(C)CC5)c(O)c4c3C2=O)NC(=O)/C(C)=C\C=C\[C@H](C)[C@H](O)[C@@H](C)[C@@H](O)[C@@H](C)[C@H](OC(C)=O)[C@@H]1C [RIF, rifampicin, reference compound], the MIC [8, 22] is reported as 0.0039 to 0.0078 µg/mL (≈ 0.00474 to 0.00948 µM), the MIC [13, 22] is reported as 0.39 to 0.78 µg/mL (≈ 0.474 to 0.948 µM) and the MIC [17, 22] is reported as 6.25 to 12.5 µg/mL (≈ 7.59 to 15.2 µM).
